Source: ChEMBL document CHEMBL1201862, “PubChem BioAssay data set” (2004)
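Growth conditions: 96-well plates. Treatment: test compound, 48 hours, 5 concentrations. Analysis: linear interpolation between bracketing concentrations; unreached endpoints set to highest concentration. The concentration for 50% growth inhibition is given as GI50.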 Active and inactive are the calls of the source. Rule as the data show it: active = GI50 up to about 1.1 µM and inactive = higher.

Tests used:
Assay in all cases: DTP human tumour cell line panel, 48 h
NCI/ADR-RES = test system: NCI/ADR-RES
RPMI-8226 = test system: RPMI-8226
A498 = test system: A498
HL-60 = test system: HL-60
HCT-116 = test system: HCT-116
Malme-3M = test system: Malme-3M
UACC-257 = test system: UACC-257
SR = test system: SR
MCF7 = test system: MCF7
SK-MEL-5 = test system: SK-MEL-5
HCC 2998 = test system: HCC 2998
EKVX = test system: EKVX
OVCAR-4 = test system: OVCAR-4
SF-268 = test system: SF-268
ACHN = test system: ACHN
BT-549 = test system: BT-549
SF-295 = test system: SF-295
K562 = test system: K562
NCI-H460 = test system: NCI-H460
SNB-75 = test system: SNB-75
UACC-62 = test system: UACC-62
PC-3 = test system: PC-3
RXF 393 = test system: RXF 393
NCI-H23 = test system: NCI-H23
SW-620 = test system: SW-620
OVCAR-3 = test system: OVCAR-3
HOP-92 = test system: HOP-92
OVCAR-8 = test system: OVCAR-8
SF-539 = test system: SF-539
CAKI-1 = test system: CAKI-1
SK-MEL-28 = test system: SK-MEL-28
SN12C = test system: SN12C
T47D = test system: T47D
UO-31 = test system: UO-31
MDA-MB-231 = test system: MDA-MB-231
CCRF-CEM = test system: CCRF-CEM
SK-MEL-2 = test system: SK-MEL-2
MDA-N = test system: MDA-N
OVCAR-5 = test system: OVCAR-5
IGROV-1 = test system: IGROV-1
A549 = test system: A549
KM12 = test system: KM12
Hs-578T = test system: Hs-578T
HCT-15 = test system: HCT-15
786-0 = test system: 786-0
MDA-MB-435 = test system: MDA-MB-435
NCI-H522 = test system: NCI-H522
LOX IMVI = test system: LOX IMVI
M14 = test system: M14
TK-10 = test system: TK-10
HT-29 = test system: HT-29
U-251 = test system: U-251
SK-OV-3 = test system: SK-OV-3
NCI-H226 = test system: NCI-H226
SNB-19 = test system: SNB-19
COLO 205 = test system: COLO 205
HOP-62 = test system: HOP-62
MOLT-4 = test system: MOLT-4
DU-145 = test system: DU-145

O=C(Cc1nc2ccc(C(=O)c3ccccc3)cc2nc1O)C(=O)Nc1ccccc1[N+](=O)[O-]
GI50 (NCI/ADR-RES): 45.1 µM (inactive)
GI50 (RPMI-8226): 34.1 µM (inactive)
GI50 (A498): > 100 µM (inactive)
GI50 (HL-60): 40.3 µM (inactive)
GI50 (HCT-116): 57 µM (inactive)
GI50 (Malme-3M): 80.9 µM (inactive)
GI50 (UACC-257): > 100 µM (inactive)
GI50 (SR): 29.2 µM (inactive)
GI50 (MCF7): 50 µM (inactive)
GI50 (SK-MEL-5): 46 µM (inactive)
GI50 (HCC 2998): 37.2 µM (inactive)
GI50 (EKVX): 89.7 µM (inactive)
GI50 (OVCAR-4): 32.4 µM (inactive)
GI50 (SF-268): 87.7 µM (inactive)
GI50 (ACHN): 67.3 µM (inactive)
GI50 (BT-549): 58.9 µM (inactive)
GI50 (SF-295): 48.6 µM (inactive)
GI50 (K562): 30.1 µM (inactive)
GI50 (NCI-H460): 53.6 µM (inactive)
GI50 (SNB-75): 26.2 µM (inactive)
GI50 (UACC-62): 55.3 µM (inactive)
GI50 (PC-3): 51.1 µM (inactive)
GI50 (RXF 393): 53.8 µM (inactive)
GI50 (NCI-H23): 42.2 µM (inactive)
GI50 (SW-620): 53.7 µM (inactive)
GI50 (OVCAR-3): > 100 µM (inactive)
GI50 (HOP-92): 65.9 µM (inactive)
GI50 (OVCAR-8): 33.5 µM (inactive)
GI50 (SF-539): > 100 µM (inactive)
GI50 (CAKI-1): 34.8 µM (inactive)
GI50 (SK-MEL-28): 94.8 µM (inactive)
GI50 (SN12C): > 100 µM (inactive)
GI50 (T47D): 54.3 µM (inactive)
GI50 (UO-31): 40 µM (inactive)
GI50 (MDA-MB-231): 38.1 µM (inactive)
GI50 (CCRF-CEM): 50.9 µM (inactive)
GI50 (SK-MEL-2): 91.2 µM (inactive)
GI50 (MDA-N): 39.4 µM (inactive)
GI50 (OVCAR-5): > 100 µM (inactive)
GI50 (IGROV-1): 40.8 µM (inactive)
GI50 (A549): > 100 µM (inactive)
GI50 (KM12): 24 µM (inactive)
GI50 (Hs-578T): 47.8 µM (inactive)
GI50 (HCT-15): 46.3 µM
GI50 (786-0): 80.2 µM (inactive)
GI50 (MDA-MB-435): 38.9 µM (inactive)
GI50 (NCI-H522): 34.4 µM (inactive)
GI50 (LOX IMVI): 67.9 µM (inactive)
GI50 (M14): 92 µM (inactive)
GI50 (TK-10): 98.9 µM (inactive)
GI50 (HT-29): 47.1 µM (inactive)
GI50 (U-251): 88.5 µM (inactive)
GI50 (SK-OV-3): > 100 µM (inactive)
GI50 (NCI-H226): 13.8 µM (inactive)

Nc1cc2ncnc(Nc3cccc(Br)c3)c2cn1
GI50 (NCI/ADR-RES): 45.6 µM (inactive)
GI50 (RPMI-8226): 52.5 µM (inactive)
GI50 (A498): 3.61 µM (inactive)
GI50 (HL-60): > 100 µM (inactive)
GI50 (HCT-116): 49.5 µM (inactive)
GI50 (Malme-3M): > 100 µM (inactive)
GI50 (UACC-257): 39.9 µM (inactive)
GI50 (SR): > 100 µM (inactive)
GI50 (SK-MEL-5): 42.7 µM (inactive)
GI50 (SNB-19): 67.5 µM (inactive)
GI50 (OVCAR-4): 39.9 µM (inactive)
GI50 (SF-268): 58.2 µM (inactive)
GI50 (ACHN): 3.44 µM (inactive)
GI50 (BT-549): > 100 µM (inactive)
GI50 (SF-295): 26.9 µM (inactive)
GI50 (K562): > 100 µM (inactive)
GI50 (NCI-H460): 30 µM (inactive)
GI50 (SNB-75): 33.7 µM (inactive)
GI50 (UACC-62): 38.5 µM (inactive)
GI50 (PC-3): 28.5 µM (inactive)
GI50 (RXF 393): 41.5 µM (inactive)
GI50 (NCI-H23): 57 µM (inactive)
GI50 (SW-620): > 100 µM (inactive)
GI50 (OVCAR-3): 15.8 µM (inactive)
GI50 (HOP-92): 26.4 µM (inactive)
GI50 (OVCAR-8): 36.1 µM (inactive)
GI50 (SF-539): 21.9 µM (inactive)
GI50 (CAKI-1): 32.4 µM (inactive)
GI50 (SK-MEL-28): 71.9 µM (inactive)
GI50 (SN12C): 17.6 µM (inactive)
GI50 (T47D): 23.9 µM (inactive)
GI50 (COLO 205): 50.4 µM (inactive)
GI50 (UO-31): 21.5 µM (inactive)
GI50 (MDA-MB-231): 45.2 µM (inactive)
GI50 (CCRF-CEM): 96.8 µM (inactive)
GI50 (SK-MEL-2): 19.8 µM (inactive)
GI50 (MDA-N): 31 µM (inactive)
GI50 (OVCAR-5): 26.7 µM (inactive)
GI50 (IGROV-1): > 10 µM (inactive)
GI50 (A549): 35.9 µM (inactive)
GI50 (KM12): 22.2 µM (inactive)
GI50 (Hs-578T): 33.7 µM (inactive)
GI50 (HOP-62): 29.4 µM (inactive)
GI50 (HCT-15): 12.3 µM
GI50 (786-0): 19.5 µM (inactive)
GI50 (MDA-MB-435): 54.3 µM (inactive)
GI50 (MOLT-4): > 100 µM (inactive)
GI50 (LOX IMVI): 38 µM (inactive)
GI50 (M14): 38 µM (inactive)
GI50 (TK-10): 2.52 µM (inactive)
GI50 (HT-29): 31.4 µM (inactive)
GI50 (U-251): 18.7 µM (inactive)
GI50 (SK-OV-3): 8.18 µM (inactive)
GI50 (NCI-H226): 23.8 µM (inactive)

CCN(CC)CCNC(=O)c1cc2cc(NC(=O)c3cc4cc(NC(=O)c5cc6cc([N+](=O)[O-])ccc6[nH]5)ccc4[nH]3)ccc2[nH]1
GI50 (NCI/ADR-RES): > 100 µM (inactive)
GI50 (RPMI-8226): < 0.01 µM (active)
GI50 (A498): > 100 µM (inactive)
GI50 (Malme-3M): > 100 µM (inactive)
GI50 (UACC-257): > 100 µM (inactive)
GI50 (SR): < 0.01 µM (active)
GI50 (SK-MEL-5): > 100 µM (inactive)
GI50 (SNB-19): > 100 µM (inactive)
GI50 (HCC 2998): > 100 µM (inactive)
GI50 (EKVX): > 100 µM (inactive)
GI50 (OVCAR-4): > 100 µM (inactive)
GI50 (SF-268): > 100 µM (inactive)
GI50 (ACHN): > 100 µM (inactive)
GI50 (BT-549): > 100 µM (inactive)
GI50 (SF-295): > 100 µM (inactive)
GI50 (K562): > 100 µM (inactive)
GI50 (NCI-H460): > 100 µM (inactive)
GI50 (SNB-75): > 100 µM (inactive)
GI50 (UACC-62): > 100 µM (inactive)
GI50 (PC-3): > 100 µM (inactive)
GI50 (RXF 393): > 100 µM (inactive)
GI50 (NCI-H23): > 100 µM (inactive)
GI50 (DU-145): > 100 µM (inactive)
GI50 (SW-620): > 100 µM (inactive)
GI50 (OVCAR-3): > 100 µM (inactive)
GI50 (HOP-92): > 100 µM (inactive)
GI50 (OVCAR-8): > 100 µM (inactive)
GI50 (CAKI-1): > 100 µM (inactive)
GI50 (SK-MEL-28): > 100 µM (inactive)
GI50 (SN12C): > 100 µM (inactive)
GI50 (T47D): > 100 µM (inactive)
GI50 (COLO 205): > 100 µM (inactive)
GI50 (UO-31): > 100 µM (inactive)
GI50 (MDA-MB-231): > 100 µM (inactive)
GI50 (CCRF-CEM): 10.6 µM (inactive)
GI50 (SK-MEL-2): > 100 µM (inactive)
GI50 (OVCAR-5): > 100 µM (inactive)
GI50 (IGROV-1): > 100 µM (inactive)
GI50 (A549): > 100 µM (inactive)
GI50 (KM12): > 100 µM (inactive)
GI50 (Hs-578T): > 100 µM (inactive)
GI50 (HOP-62): > 100 µM (inactive)
GI50 (HCT-15): > 100 µM
GI50 (786-0): > 100 µM (inactive)
GI50 (MDA-MB-435): > 100 µM (inactive)
GI50 (MOLT-4): < 0.01 µM (active)
GI50 (NCI-H522): > 100 µM (inactive)
GI50 (LOX IMVI): > 100 µM (inactive)
GI50 (M14): > 100 µM (inactive)
GI50 (TK-10): > 100 µM (inactive)
GI50 (HT-29): > 100 µM (inactive)
GI50 (U-251): > 100 µM (inactive)
GI50 (SK-OV-3): > 100 µM (inactive)
GI50 (NCI-H226): > 100 µM (inactive)
